{"source": "patent US7270975B2", "about": "“Methods for regulating bud-hypha transitions and cAMP levels in Candida albicans” (priority 2001, dated 2007)", "key": {"[1]": {"tested_on": "C. albicans strains with a wild type PDE2 gene (UnoPP-1, BPS1, BPS9)", "details": "YNB, 4 mM and 40 mM cAMP", "description": "(§1) C. albicans strains were grown in YNB at 30° C. to middle-logarithmic phase, and then an equal number of cells were subcultured into YNB or YNB containing 4 mM and 40 mM cAMP and grown for 6 to 9 hours. Every hour during incubation, optical density and cell number/ml of cultures were measured by a photoelectric colorimeter (Klett-Summerson, Klett MFG. Co., Inc, NY, N.Y.) and hemacytometer, respectively. The percent of dead cells was determined by staining with 0.1% methylene blue (Sigma, St. Louis, Mo.). Also, cell morphologies were observed by microscopy. After a 6-hour incubation of each strain with YNB containing the indicated amounts of exogenous cAMP, culture samples were serially diluted, spread on YPD plates, and incubated for 2 days to determine the number of colony forming units (CFU). The percent relative growth was calculated by using the following formula: [(CFU of a strain incubated for 6 h in YNB having an indicated concentration of cAMP)/(CFU of the strain incubated for 6 h in YNB only)]×100%."}, "[2]": {"tested_on": "C. albicans pde2/pde2 mutant (BPS4)", "details": "for relative growth (CFU vs YNB alone) of the pde2/pde2 mutant: 6 h; for doubling time of pde2/pde2 mutants: 30° C.; for swollen pde2/pde2 mutant cells: YNB, 6 hours", "description": "as §1"}, "[3]": {"tested_on": "PDE2 mRNA in C. albicans cap1/cap1 mutant", "details": "cAMP 10 mM, germ tube induction conditions, data not shown"}, "[4]": {"tested_on": "C. albicans wild type CAP1/CAP1 strain, UnoPP-1", "format": "cell-based, Candida albicans", "details": "SLAD media, 10 mM, 37° C."}, "[5]": {"tested_on": "C. albicans cap1/cap1 mutant strain, CAC1-1A", "experiment": "Filamentous growth in SLAD agar with exogenous cAMP or dbcAMP", "format": "cell-based, Candida albicans", "details": "SLAD media, 10 mM, 37° C.; for colony morphology / filamentous growth of the cap1/cap1 mutant: 5 days", "description": "(§2) To determine the effect of exogenous cAMP on bud-hypha transitions and filamenious growth of cap1/cap1 mutants, stationary phase yeasts were induced to form germ tubes and hyphae in liquid M199+serum (10^6 cells/ml) or in SLAD agar plates containing 10 mM cAMP or dbcAMP (Sigma). M199+serum containing cAMP or dbcAMP were incubated at 37° C. for 20 h and the frequency of germ tube formation was measured at various time points. SLAD plates containing cAMP or dbcAMP were incubated at 37° C. for 5 days, and filamentous growth was monitored daily."}, "[6]": {"tested_on": "C. albicans cap1/cap1 mutant strain, CAC1-1A", "experiment": "Bud-hypha transitions in liquid M199+serum with exogenous cAMP or dbcAMP", "format": "cell-based, Candida albicans", "details": "10 mM", "description": "as §2"}, "[7]": {"tested_on": "C. albicans cap1/cap1 pde2/pde2 mutant (BPS18)", "experiment": "Filamentation in SLAD agar with or without dbcAMP", "format": "cell-based, Candida albicans", "details": "SLAD agar media, 10 mM dbcAMP", "method": "Filamentous growth of each strain was induced at 37° C. for 6 days in solid Spider media (a11-15) and 2% agar media containing 4% bovine calf serum (a16-20).\nFor growth analysis in agar-containing media, stationary-phase yeasts were mixed (200 cells/25 ml of medium) with liquefied agar Spider medium (Liu et al., 266 SCIENCE 1723-1726 (1994)), SLAD (synthetic low ammonium dextrose)(Csank et al., 66 INFECT. IMMUN. 2713-2721 (1998)), and 2% agar containing 4% bovine calf serum (Lo et al., 90 CELL 939-949 (1997)."}}, "note": "Where two headings read alike, the source gives them in different places."}
{"smiles": "Nc1ncnc2c1ncn2[C@@H]1O[C@@H]2COP(=O)(O)O[C@H]2[C@H]1O", "note": "[cAMP, cyclic AMP]", "values": [{"measurement": "relative growth rate of strains with a wild type PDE2 gene", "setting": "[1]", "value": "not affected"}, {"measurement": "relative growth (CFU vs YNB alone) of the pde2/pde2 mutant", "setting": "[2]; YNB containing 4 mM cAMP", "value": "about 70%"}, {"measurement": "relative growth (CFU vs YNB alone) of the pde2/pde2 mutant", "setting": "[2]; YNB containing 40 mM cAMP", "value": "~40", "unit": "%"}, {"measurement": "doubling time of pde2/pde2 mutants", "setting": "[2]; YNB with 4 mM cAMP", "value": 3.7, "unit": "h"}, {"measurement": "doubling time of pde2/pde2 mutants", "setting": "[2]; YNB with 40 mM cAMP", "value": 4.8, "unit": "h"}, {"measurement": "swollen pde2/pde2 mutant cells", "setting": "[2]; 4 mM cAMP", "value": "~50 % of cells"}, {"measurement": "swollen pde2/pde2 mutant cells", "setting": "[2]; 40 mM cAMP", "value": "greater than 90 % of cells"}, {"measurement": "PDE2 mRNA expression in the cap1/cap1 mutant", "setting": "[3]", "value": "the same with or without exogenous cAMP"}, {"measurement": "filamentous growth of the wild type strain", "setting": "[4]", "value": "slightly enhanced"}, {"measurement": "timing of onset of filamentous growth of the cap1/cap1 mutant", "setting": "[5]", "value": "two"}, {"measurement": "colony morphology / filamentous growth of the cap1/cap1 mutant", "setting": "[5]", "value": "dramatically altered the colony morphology"}]}
{"smiles": "CCCC(=O)Nc1ncnc2c1ncn2[C@@H]1O[C@@H]2COP(=O)(O)O[C@H]2[C@H]1OC(=O)CCC", "note": "[dbcAMP, dibutyryl cAMP]", "values": [{"measurement": "hypha formation of the cap1/cap1 mutant in liquid media", "setting": "[6]; 37° C., 10^6 cells/ml", "value": "enhanced"}, {"measurement": "pseudohyphae detected in the presence vs absence of dbcAMP", "setting": "[6]; at 3 h", "value": "twice as many pseudohyphae"}, {"measurement": "filamentation of the cap1/cap1 pde2/pde2 mutant", "setting": "[7]", "value": "increase filamentation of the cap1/cap1 pde2/pde2 mutant to near wild type levels"}, {"measurement": "filamentous growth of the wild type strain", "setting": "[4]", "value": "slightly enhanced"}, {"measurement": "timing of onset of filamentous growth of the cap1/cap1 mutant", "setting": "[5]", "value": "two"}, {"measurement": "colony morphology / filamentous growth of the cap1/cap1 mutant", "setting": "[5]", "value": "dramatically altered the colony morphology"}]}
